Three compounds from paper PMC9673804, “Design, synthesis and antitumor evaluation of novel pyrazolo[3,4-d]pyrimidines incorporating different amino acid conjugates as potential DHFR inhibitors” (Journal of Enzyme Inhibition and Medicinal Chemistry, 2022) can be followed below.

For orientation: IC50 means the midpoint of a concentration-inhibition curve. A high value points to weaker potency in that assay. For orientation: inhibition means the change of the read-out against control, counted positive when it falls. A low value points to a response near the control.

The structures appear in SMILES notation. Several values for one entry are separate records, joined by “and”; a condition that tells them apart may be missing. Identical values can stand only once.

For assay [1], the system named is pancreatic human cancer cell lines (BxPC-3). Nature of the assay: SRB cytotoxicity assay, BxPC-3. Type of assay: cell-based. To be noted: BxPC-3 cells. As for the experimental part:
(§1) The SRB colorimetric assay was employed to assess the synthesized compounds’ cytotoxic effects on several cancer cell lines (Table 1)[11–14]. […] Furthermore, the effect of tested compounds was evaluated on the normal immortalized HPDE cell line.
(§2) Sulforhodamine B (SRB) assay was employed to assay in-vitro antitumor activities of all the synthesised compounds as describer previously. […] The cell lines were obtained from the American Type Culture Collection (Rockville, USA).

The next assay has as its target T1, human DHFR enzyme (Homo sapiens, UniProt P00374).
T1 construct: purchased MyBioSource MBS9312476
T1 sequence (P00374 1-187): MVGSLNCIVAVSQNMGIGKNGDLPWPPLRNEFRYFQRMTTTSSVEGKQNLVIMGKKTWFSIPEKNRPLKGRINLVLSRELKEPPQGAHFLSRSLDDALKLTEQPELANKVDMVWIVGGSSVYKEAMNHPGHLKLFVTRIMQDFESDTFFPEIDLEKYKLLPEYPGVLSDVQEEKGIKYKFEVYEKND
The experiment in a line: Elisa assay of human DHFR enzyme. Type of assay: biochemical. The following applies: for IC50: DHFR ELISA kit, triplicate; for inhibition at 0.1 µM: conc 0.1 uM; for inhibition at 1 µM: conc 1 uM; for inhibition at 10 µM: conc 10 uM; for inhibition at 100 µM: conc 100 uM. As for the experimental part:
Enzyme-linked immunosorbent assay (ELISA) assay technique was used to evaluate the anti-DHFR effects of all the synthesised compounds on as described previously. The DHFR ELISA kit (MyBioSource, MBS9312476 San Diego, CA, USA) was used according to the manufacturer instructions. […] The test was repeated in triplicate, and the significance was assessed by one-way ANOVA test followed by Tukey’s posttest, where p < 0.05 was considered significance.
Background: ELISA stands for enzyme-linked immunosorbent assay.

Assay [2] relates to human prostate cancer (PC-3). Nature of the assay: SRB cytotoxicity assay, PC-3. Type of assay: cell-based. To be noted: PC-3 cells. The procedure: as §1, §2
(In general: In SRB staining, fixed cells bind dye roughly in proportion to their protein.)

Assay [3] has as its system cervical carcinoma (HeLa). Nature of the assay: SRB cytotoxicity assay, HeLa. It counts as cell-based. To be noted: Homo sapiens, HeLa cells.
For assay [4], the system named is colorectal carcinoma (HCT-116). The experiment in a line: SRB cytotoxicity assay, HCT-116. Type of assay: cell-based. To be noted: Homo sapiens, HCT-116 cells. As for the experimental part: as §1, §2
For assay [5], the system named is normal immortalised pancreatic cell line (HPDE). The experiment in a line: SRB cytotoxicity assay, normal HPDE cells. Type of assay: cell-based. To be noted: normal immortalized HPDE cell line. As for the experimental part: as §1, §2
Assay [6] concerns human hepatocellular carcinoma (HepG-2). Nature of the assay: SRB cytotoxicity assay, HepG-2. It counts as cell-based. The following applies: HepG2, HepG-2 cells. The procedure: as §1, §2
Assay [7] deals with mammary gland breast cancer (MCF-7). The experiment in a line: SRB cytotoxicity assay, MCF-7. Type of assay: cell-based. The following applies: Homo sapiens, MCF7, MCF-7 cells. The procedure: as §1, §2

With `CC(C)C(NC(=O)c1ccc(Nc2ncnc3c2cnn3-c2ccccc2)cc1)C(=O)O` (stereo not drawn) [Compound 7c, 3-Methyl-2-{4-[(1-phenyl-1H-pyrazolo[3,4-d]pyrimidin-4-yl)amino]benzamido}butanoic acid], the IC50 in assay [1] is 10.2 ± 1.01 µM; on human DHFR enzyme, < 1 µM and ~0.61 µM and 0.61 µM; in assay [2], 11.2 ± 0.34 µM; in assay [3] it was 9.39 ± 0.25 µM; in assay [4], 10.6 ± 1.1 µM; in assay [5] it was over 50 µM. In addition, the half-inhibitory concentration (IC50) in assay [6] amounted to 12.2 ± 1.14 µM; in assay [7], 6.56 ± 0.18 µM. The inhibition at 0.1 µM against human DHFR enzyme came out at 39%. At human DHFR enzyme, this compound showed an inhibition at 1 µM of 65%. On human DHFR enzyme, this compound showed an inhibition at 10 µM of 80%. At human DHFR enzyme, this compound had an inhibition at 100 µM of 94%.

As for `O=C(NC(CS)C(=O)O)c1ccc(Nc2ncnc3c2cnn3-c2ccccc2)cc1` (stereo not drawn) [Compound 7g, 3-Mercapto-2-{4-[(1-phenyl-1H-pyrazolo[3,4-d]pyrimidin-4-yl)amino]benzamido}propanoic acid], the IC50 is 15.2 ± 0.22 µM in assay [1]; 1.28 ± 0.03 µM on human DHFR enzyme; 13.2 ± 1.52 µM in assay [2]; 12.3 ± 1.2 µM in assay [3]; 12.2 ± 1.2 µM in assay [4]; over 50 µM in assay [5]. Besides, the 50% inhibitory concentration (IC50) is 10.2 ± 0.92 µM in assay [6] and 10.8 ± 1.1 µM in assay [7]. On human DHFR enzyme, this compound returned an inhibition at 0.1 µM of 37%. In addition, the inhibition at 1 µM against human DHFR enzyme came to 55%. The compound also had an inhibition at 10 µM on human DHFR enzyme of 70%. At human DHFR enzyme, this compound returned an inhibition at 100 µM of 84%.

As for `CSCCC(NC(=O)c1ccc(Nc2ncnc3c2cnn3-c2ccccc2)cc1)C(=O)O` (stereo not drawn) [Compound 7h, 4-(Methylthio)-2-{4-[(1-phenyl-1H-pyrazolo[3,4-d]pyrimidin-4-yl)amino]benzamido}butanoic acid], the IC50 was 17.9 ± 1.03 µM in assay [1]; 8.47 ± 0.18 µM against human DHFR enzyme; 17 ± 2.02 µM in assay [2]; 18 ± 1.2 µM in assay [3]; 19.3 ± 0.85 µM in assay [4]; over 50 µM in assay [5]. In addition, the IC50 in assay [6] was determined as 17 ± 0.92 µM; in assay [7], 20 ± 2.01 µM. In addition, 0.1 µM produced 21% inhibition against human DHFR enzyme. The compound also registered an inhibition at 1 µM against human DHFR enzyme of 36%. 10 µM produced 54% inhibition at human DHFR enzyme. This compound also displayed an inhibition at 100 µM against human DHFR enzyme of 81%.
